Structures are written as SMILES.

The nature of the data set: gradient 5% acetonitrile 3 min, to 50% in 2 min, to 85% in 15 min, held 3 min, 100 µL/min. Particulars: column: Zorbax Extend-C18 2.1 x 50 mm; eluents: water / acetonitrile, 0.1% formic acid. In a few lines: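 Each retention time is based on an adduct peak selected computationally and verified by manual inspection. Measurements used HPLC–quadrupole time-of-flight mass spectrometry in positive and negative ionization mode on mixtures of ~100 pure standards. Chromatography ran on a Zorbax Extend-C18 column (2.1 × 50 mm, 1.8 μm) at 100 μL/min with water and acetonitrile, each containing 0.1% formic acid, and dead and dwell volumes of 40 μL and 900 μL.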
`CCOC(=O)C(=O)Nc1cccc(F)c1` yielded an RP-LC retention time of 723 s.

`Cc1cc(C)n2nc(SCC(=O)NCc3ccccc3)nc2n1` came in with an RP-LC retention time of 705 s.

The compound `COc1ccc(-c2cc3c(=O)n(Cc4noc(CN(C)C5CCCCC5)n4)ccn3n2)cc1` came in with an RP-LC retention time of 671 s.

`COc1cc(C(=O)NCC(c2cccs2)N2CCOCC2)cc(OC)c1OC` (stereo not given) showed an RP-LC retention time of 607 s.

The compound `Cc1ccc(CNc2nc(-c3nnc(-c4ccccc4)o3)nc3ccccc23)o1` yielded an RP-LC retention time of 991 s.

On to `CNS(=O)(=O)c1ccc(C(=O)N2CCc3ccccc3C2)o1`, for which the RP-LC retention time was 724 s.

Consider `CC1CCN(C(=O)C2CCN(S(C)(=O)=O)c3ccccc3O2)CC1` (stereo not given), for which the RP-LC retention time is 802 s.

Compound `O=C(NCCC1=CCCCC1)C1CCN(C(=O)c2ncn3c2COC(c2ccc(F)cc2)C3)CC1` (stereo not given) came in with an RP-LC retention time of 849 s.

Regarding `CN1CCN(CCNC(=O)C2CN(S(=O)(=O)c3ccccc3)CC23CCCCC3)CC1` (stereo not given), the RP-LC retention time came to 573 s.

Consider `COc1cc(CNC(=O)C2CCCN(c3cc(=O)n(C)c(=O)n3C)C2)cc(OC)c1OC` (stereo not given), for which the RP-LC retention time is 636 s.

`COc1ccc(-c2noc(C3CCCN3C(=O)c3ccccc3OC)n2)cc1OC` (stereo not given): the RP-LC retention time came out at 834 s.

`O=C1Nc2cc(C(=O)N3CCN(c4cccc(Cl)c4)CC3)ccc2N2CCCCC12` (stereo not given) displayed an RP-LC retention time of 975 s.

As for `CC(=O)Nc1ccc(OCC(=O)NCc2cc(F)ccc2F)nc1`, the RP-LC retention time is 681 s.

Compound `Cc1ccc(NC(=O)N2CCN(c3cc(C)nc(N4CCCC4)n3)CC2)cc1` displayed an RP-LC retention time of 677 s.

In turn, `Cc1cc(OCC(=O)Nc2ccccc2C(F)(F)F)nc(N2CCCC(C)C2)n1` (stereo not given) gave an RP-LC retention time of 734 s.

The compound `CCOc1ccccc1C1NC(=O)N(CC(=O)NC2CCCC2)C2=C1C(=O)OC2` (stereo not given) had an RP-LC retention time of 737 s.

In turn, `CCc1ccc(S(=O)(=O)NCCc2sc(C)nc2C)s1` registered an RP-LC retention time of 647 s.

`Cc1cc(N(C)C)n2ncc(-c3ccc(Cl)cc3)c2n1` showed an RP-LC retention time of 889 s.

`COc1cccc2c(=O)c(NC(=O)N3CCCC(C(N)=O)C3)c[nH]c12` (stereo not given): the RP-LC retention time stood at 580 s.

For `Cc1nc(-c2cn(C)c3ncccc23)sc1C(=O)Nc1ccc(F)cc1F`, the RP-LC retention time was found to be 940 s.

For `Cc1ccccc1-c1noc(Cn2ccn(-c3c(C)cccc3C)c(=O)c2=O)n1`, the RP-LC retention time turned out to be 923 s.

Turning to `CCOC(=O)c1sc(NC(=O)CC(C)C)nc1-c1ccccc1`, the RP-LC retention time turned out to be 1050 s.

Compound `CCn1c(=O)cc(SCC(=O)N2CCN(c3ccccn3)CC2)c2ccccc21` returned an RP-LC retention time of 607 s.

Take `CCOC(=O)c1ccc(NC2=NS(=O)(=O)C(c3ccccc3)=C2C)cc1`: the RP-LC retention time was 960 s.

Compound `COCCCNC(=O)NCc1cccnc1OC` showed an RP-LC retention time of 594 s.

Take `Cc1ccc(Nc2c(-c3ccccc3)nc3ncccn23)c(C)c1`: the RP-LC retention time was 786 s.

In turn, `CN1c2c(Cl)cccc2C(=O)NC12CCN(C(=O)c1ccccc1)CC2` showed an RP-LC retention time of 768 s.

`Cc1ccc2oc(=O)n(Cc3noc(C(=O)NCc4ccc(Br)cc4)n3)c2c1` showed an RP-LC retention time of 952 s.

Regarding `Cc1cc(C)n(CC(=O)N(C)CC2(C)CCOCC2)n1`, the RP-LC retention time was determined as 612 s.

For `COC(=O)c1cc(OCC(=O)Nc2ccccc2F)c2cc(F)ccc2n1`, the RP-LC retention time stood at 857 s.

Take `Cc1ccc2c(c1)C(=O)NC1(CCN(C(=O)Cc3ccccc3C)CC1)N2C`: the RP-LC retention time was 820 s.

Consider `Cn1nc(-c2nnc(-c3ccccc3F)o2)c2c1CCN(S(=O)(=O)c1ccc3c(c1)CCCC3)C2`, for which the RP-LC retention time was 1090 s.

Consider `O=C([C@@H]1C[C@H](F)CN1C(=O)c1ccccc1)N1CCOCC1`, for which the RP-LC retention time was determined as 590 s.

For `Cc1ccc(CN2CCNCC2)cc1NC(=O)CNc1ccc(F)c(F)c1`, the RP-LC retention time was 639 s.

Regarding `O=S(=O)(NCc1nnnn1-c1ccc(Cl)cc1)c1ccc2c(c1)OCCO2`, the RP-LC retention time worked out at 773 s.

Compound `CC(C)n1cc(C2=CCN(C(=O)NC3CCCCC3)CC2)c2cccnc21` had an RP-LC retention time of 945 s.

`Cc1oc2ccn(Cc3cccc(F)c3)c(=O)c2c1C(=O)NC1CCCC1` had an RP-LC retention time of 1060 s.

Consider `CC(C)C(C(=O)O)N1C(=O)c2cccc3cccc(c23)C1=O` (stereo not given), for which the RP-LC retention time was determined as 795 s.

For `O=C(Nc1ccccc1Br)N[C@@H]1CCN(c2ccc(C(F)(F)F)cn2)C1`, the RP-LC retention time worked out at 937 s.

The compound `O=C(Nc1ccc(-c2cn3cccnc3n2)cc1)c1ccc(F)c(F)c1` returned an RP-LC retention time of 647 s.

Take `CC(CNC(=O)Cc1csc2nc(-c3ccccc3)cn12)c1ccccc1` (stereo not given): the RP-LC retention time was determined as 841 s.

As to `COc1ccc2ncc(S(=O)(=O)c3ccccc3)c(Nc3ccc4c(c3)OCCO4)c2c1`, the RP-LC retention time amounted to 855 s.

Consider `CCOC(=O)c1nc(NC(CC)CN(C)Cc2ccccc2)c2c(C)noc2n1` (stereo not given), for which the RP-LC retention time was found to be 672 s.

On to `Cc1ccc(NC(=O)N2CCC(N3CCN(Cc4ccccc4)C3=O)CC2)cc1F`, for which the RP-LC retention time is 872 s.

`Cc1ccc(C)c(CNC(=O)c2nc3cccnc3n(CC(C)C)c2=O)c1` returned an RP-LC retention time of 1060 s.

As to `COc1ccc(N2CC(c3noc(-c4ccccc4)n3)CC2=O)cc1` (stereo not given), the RP-LC retention time is 919 s.

As to `CCOc1cccc(-c2noc(CN3C(=O)COc4ccccc43)n2)c1`, the RP-LC retention time worked out at 1050 s.

As for `Cc1cc(C)c(S(=O)(=O)N2CCN(C(=O)c3ccc4c(c3)OCO4)CC2)c(C)c1`, the RP-LC retention time was 912 s.

`Cc1ccc(C2Cn3cnc(C(=O)N4CCC(C(=O)NCc5ccccc5C)CC4)c3CO2)cc1` (stereo not given) had an RP-LC retention time of 810 s.

As for `COc1ccccc1NC(=O)N1CCCN(Cc2nc3cc(Cl)ccc3o2)CC1`, the RP-LC retention time was 687 s.

In the case of `CC(C)OCCCNC(=O)c1nnc(-c2ccc(S(=O)(=O)N3CCCC3)cc2)o1`, the RP-LC retention time was 843 s.

`Cc1ccc(Cl)cc1NC(=O)Nc1cccc(-c2ccc(N3CCOCC3)nn2)c1` displayed an RP-LC retention time of 753 s.

For the compound `CCOc1ccc(CC(=O)NCCc2nc3cccnc3n2C)cc1`, the RP-LC retention time is 733 s.

`Cc1ccc(-c2nnc(-c3ccccc3)o2)cc1S(=O)(=O)N1CCCCC1` displayed an RP-LC retention time of 1100 s.

`CSc1cccc(NC(=O)NC2CCN(c3ccc(F)cc3)C2=O)c1` (stereo not given): the RP-LC retention time turned out to be 824 s.

The compound `CCOc1ccc(N2C(=O)CN(CCc3ccccc3F)[C@H]3CS(=O)(=O)C[C@H]32)cc1` displayed an RP-LC retention time of 840 s.

`O=c1n(Cc2ccccc2F)nc2ccc(S(=O)(=O)N3CCOCC3)cn12` displayed an RP-LC retention time of 788 s.

As to `Cc1cc(-c2csc(S(=O)(=O)NCCCN3CCN(C)CC3)c2)on1`, the RP-LC retention time turned out to be 580 s.

`Cn1c(=O)n(CC(N)=O)c(=O)c2c1nc1n2CCCN1C1CCCCC1` gave an RP-LC retention time of 657 s.

In turn, `C[C@H](Cc1ccc(O)c(O)c1)[C@@H](C)Cc1ccc(O)c(O)c1` yielded an RP-LC retention time of 878 s.

Source of the values: the METLIN SMRT retention time set (Domingo-Almenara et al. 2019).
